System: rAbf43A
Experiment: HPLC of released arabinose, Michaelis-Menten non-linear regression
Type: biochemical, metagenome: lignocellulolytic bacterial consortium EMSD5
Conditions: 0.05 M citric-Na2HPO4 pH 5.0, 40 °C, 10 min; AXHd3 activity; 0-40.0 mM substrate

SMILES: OC[C@@H]1O[C@@H](O[C@@H]2[C@@H](O[C@@H]3O[C@@H](CO)[C@H](O)[C@H]3O)[C@H](O[C@@H]3CO[C@@H](O[C@@H]4COC(O)[C@H](O)[C@H]4O)[C@H](O)[C@H]3O)OC[C@H]2O)[C@H](O)[C@H]1O (stereo partly drawn) [A2,3XX, 2^3,3^3‐di‐α‐L‐arabinofuranosyl‐xylotriose]
- Km: 8.03 mM
